{"source": "patent US3951979A", "about": "“New amino propanediol derivatives” (priority 1972, dated 1976)", "key": {"coughing spasms": {"system": "coughing spasms", "test": "Antitussive effect: inhibition of coughing spasms induced by stimulating a laryngeal nerve", "format": "in vivo, cat", "conditions": "for Activity of the product (antitussive) / Duration of activity (antitussive): cat", "excerpt": "Finally, the compounds of the invention having shown themselves to be powerful antitussive agents, the results of comparative tests for this activity on four compounds of the invention and on pentoxyverine, one of the most powerful antitussive agents at present known, are given below in Table V.\nThe technique used was the method of R. Domenjoz, Arch. Exp. Pathol. V. Pharmacol. Volume 215, page 19 (1952)\nThe cat is anaesthetized with ether and tracheotomised.\nCoughing spasms are induced by stimulating a laryngeal nerve. After the product to be tested has been administered, fresh stimulation enables the inhibition achieved and its duration to be assessed."}, "[1]": {"system": "carotid arterial blood-pressure", "test": "Effect on carotid arterial blood-pressure of the dog anaesthetised with chloralose", "format": "in vivo", "conditions": "1.25 mg/kg intravenous; for change in vivo at 1.25 mg/kg: Canis lupus familiaris", "procedure": "EFFECT ON ARTERIAL BLOOD-PRESSURE This was measured on the dog anaesthetised with chloralose by recording both the extent of, and the duration of, the effect on carotid arterial blood-pressure."}, "[2]": {"system": "mebubarbital-induced sleep", "test": "Potentiation of an inactive dose of a barbiturate (mebubarbital)", "format": "in vivo", "conditions": "0.25 h; oral administration; sleep in 50% of animals 15 minutes after product; read-out: Barbiturates (potentiation), ED50"}, "[3]": {"system": "apomorphine-induced vomiting", "test": "Anti-emetic effect: apomorphine-induced attempted vomits in beagle dogs", "format": "in vivo", "conditions": "dog, 5 mg/kg oral", "procedure": "The anti-emetic effect, which may constitute a contributory factor to the main effect, was also systematically tested in accordance with the following procedure:\nDogs of the beagle breed were split up at random into groups of 3 animals. After fasting for 24 hours, the animals were given an empty capsule then, one hour later, received a sub-cutaneous injection of apomorphine hydrochloride (0.3 mg/kg). The number of attempted vomits during 45 minutes was then counted.\nAfter 15 days rest, the same animals were given a capsule identical to that given on the first occasion but containing the product to be tested. The injection of apomorphine was carried out under the same conditions as for the control experiment."}, "cerebral dopamine": {"system": "cerebral dopamine", "test": "Biochemical dopamine effect on the brain (spectrofluorometric)", "format": "in vivo, mouse (strain OF1)", "conditions": "mouse, I.P.", "procedure": "7. Biochemical dopamine effect on the brain This effect is measured by spectrofluorometric means using the Jobin-Yvon Bearn apparatus, on the brains of mice of the strain OF1."}, "[4]": {"test": "Acute toxicity, LD50, oral administration", "conditions": "in vivo, mouse", "procedure": "1. Acute toxicity -- LD50 -- Oral administration\nThis was determined upon the mouse by oral administration, the LD50 value being calculated by the method of B. Behrens & C. Karber (Arch F. Exp. Patho. Pharm., volume 177, page 379 (1935) )"}, "rat": {"system": "rat", "test": "Cataleptic effect, homolateral crossed paws method", "format": "in vivo", "parameters": "Catalepsy: unit not given here"}, "apomorphine": {"system": "apomorphine", "test": "Anti-apomorphic effect in the rat", "format": "in vivo", "parameters": "Anti-apomorphine: unit not given here"}, "central nervous system": {"system": "central nervous system", "test": "Effect on the central nervous system, overall psycholeptic/neuroleptic spectrum", "conditions": "in vivo", "excerpt": "EFFECT ON THE CENTRAL NERVOUS SYSTEM\nThis effect was observed by means of a set of tests of which the most significant are summarised below: […]"}}, "data": [{"smiles": "CCN(CC)CCOCCOC(=O)C1(c2ccccc2)CCCC1", "note": "[Pentoxyverine, pentoxyverine, reference compound]", "values": [{"measurement": "Activity of the product (antitussive)", "setting": "coughing spasms; 10 mg/kg body weight", "result": 45, "unit": "%"}, {"measurement": "Duration of activity (antitussive)", "setting": "coughing spasms; 10 mg/kg body weight", "result": 30, "unit": "min"}, {"measurement": "Activity of the product (antitussive)", "setting": "coughing spasms; 50 mg/kg body weight", "result": 71, "unit": "%"}, {"measurement": "Duration of activity (antitussive)", "setting": "coughing spasms; 50 mg/kg body weight", "result": 110, "unit": "min"}]}, {"smiles": "C#CC(C)(C)OCC(O)CN1CCN(c2ccc(F)cc2)CC1", "note": "(stereo not shown) [compound 5]", "values": [{"measurement": "Duration of activity (blood-pressure)", "setting": "[1]", "result": "≥ 35", "unit": "min"}, {"measurement": "change in vivo at 1.25 mg/kg", "setting": "[1]", "result": -19.5, "unit": "%"}]}, {"smiles": "C#CC1(OCC(O)CN2CCN(c3ccc(Cl)cc3)CC2)CCCCC1", "note": "(stereo not shown) [compound 8]", "values": [{"measurement": "ED50", "setting": "[2]", "result": 50, "unit": "mg/kg"}, {"measurement": "Reduction in attempted vomits", "setting": "[3]", "result": 76, "unit": "%"}, {"measurement": "Cerebral dopamine", "setting": "cerebral dopamine; at 80 mg/kg", "result": -78, "unit": "%"}, {"measurement": "LD50", "setting": "[4]", "result": "> 600", "unit": "mg/kg"}, {"measurement": "Catalepsy", "setting": "rat; I.P.", "result": 30}]}, {"smiles": "C#CC(C)(CC)OCC(O)CN1CCN(c2ccc(F)cc2)CC1", "note": "(stereo not shown) [compound 9]", "values": [{"measurement": "ED50", "setting": "[2]", "result": "> 100", "unit": "mg/kg"}, {"measurement": "Cerebral dopamine", "setting": "cerebral dopamine; at 60 mg/kg", "result": -50, "unit": "%"}, {"measurement": "Duration of activity (blood-pressure)", "setting": "[1]", "result": 20, "unit": "min"}, {"measurement": "change in vivo at 1.25 mg/kg", "setting": "[1]", "result": -27, "unit": "%"}, {"measurement": "LD50", "setting": "[4]", "result": "> 600", "unit": "mg/kg"}, {"measurement": "Catalepsy", "setting": "rat; I.P.", "result": 60}]}, {"smiles": "C#CC(C)(CC)OCC(O)CN1CCN(c2ccccc2OC)CC1", "note": "(stereo not shown) [compound 18]", "values": [{"measurement": "Activity in apomorphine stereotypes (in words)", "setting": "apomorphine; in vivo", "result": "active in apomorphine stereotypes"}, {"measurement": "Anti-apomorphine", "setting": "apomorphine; subcutaneous, apomorphine 0.6 mg/kg", "result": 10}, {"measurement": "Sedative effect (in words)", "setting": "central nervous system", "result": "non-sedative"}, {"measurement": "ED50", "setting": "[2]", "result": "> 25", "unit": "mg/kg"}, {"measurement": "Cerebral dopamine", "setting": "cerebral dopamine; at 20 mg/kg", "result": -24, "unit": "%"}, {"measurement": "LD50", "setting": "[4]", "result": "> 200", "unit": "mg/kg"}, {"measurement": "Catalepsy, result at stated dose", "setting": "rat; I.P., at 40", "result": "Inactive"}, {"measurement": "Cataleptic effect (in words)", "setting": "rat; in vivo", "result": "non-inducive of catalepsy"}]}, {"smiles": "C#CC1(OCC(O)CN2CCN(CC(OC)c3ccccc3)CC2)CCCCC1", "note": "(stereo not shown) [compound 21]", "values": [{"measurement": "Activity of the product (antitussive)", "setting": "coughing spasms; 10 mg/kg body weight", "result": 54, "unit": "%"}, {"measurement": "Duration of activity (antitussive)", "setting": "coughing spasms; 10 mg/kg body weight", "result": 20, "unit": "min"}]}, {"smiles": "C#CC1(OCC(O)CN2CCN(CC(OCC)c3ccccc3)CC2)CCCCC1", "note": "(stereo not shown) [compound 22]", "values": [{"measurement": "Activity of the product (antitussive)", "setting": "coughing spasms; 10 mg/kg body weight", "result": 75, "unit": "%"}, {"measurement": "Duration of activity (antitussive)", "setting": "coughing spasms; 10 mg/kg body weight", "result": 50, "unit": "min"}, {"measurement": "Dose of pentoxyverine necessary for comparable antitussive effect, relative to compound", "setting": "coughing spasms; versus pentoxyverine", "result": "five times greater"}]}, {"smiles": "C#CC(C)(C)OCC(O)CN1CCN(CC(OC)c2ccccc2)CC1", "note": "(stereo not shown) [compound 23]", "values": [{"measurement": "Activity of the product (antitussive)", "setting": "coughing spasms; 10 mg/kg body weight", "result": 31, "unit": "%"}, {"measurement": "Duration of activity (antitussive)", "setting": "coughing spasms; 10 mg/kg body weight", "result": 25, "unit": "min"}]}, {"smiles": "C[C@](N)(Cc1ccc(O)c(O)c1)C(=O)O", "note": "[αmethyldopa, reference compound]", "values": [{"measurement": "Duration of activity (blood-pressure)", "setting": "[1]", "result": 95, "unit": "min"}, {"measurement": "change in vivo at 1.25 mg/kg", "setting": "[1]", "result": -8.7, "unit": "%"}]}]}
